According to ChEMBL document CHEMBL1158434, “Discovery of a potent and brain penetrant mGluR5 positive allosteric modulator” (Bioorg Med Chem Lett, 2009):
≈ marks a conversion by molar mass, not a printed value. Calls of active or inactive are those of the source. No cut-off for these calls is given here.

Tests used:
[1] = target: T1, Metabotropic glutamate receptor 5 (Homo sapiens, UniProt P41594); experiment: Agonist activity at human mGluR5 transiently transfected in BHK cells assessed as potentiation of L-glutamate-induced calcium flux by FLIPR assay; type: functional, cell-based
Target sequence in this assay (P41594 whole entry): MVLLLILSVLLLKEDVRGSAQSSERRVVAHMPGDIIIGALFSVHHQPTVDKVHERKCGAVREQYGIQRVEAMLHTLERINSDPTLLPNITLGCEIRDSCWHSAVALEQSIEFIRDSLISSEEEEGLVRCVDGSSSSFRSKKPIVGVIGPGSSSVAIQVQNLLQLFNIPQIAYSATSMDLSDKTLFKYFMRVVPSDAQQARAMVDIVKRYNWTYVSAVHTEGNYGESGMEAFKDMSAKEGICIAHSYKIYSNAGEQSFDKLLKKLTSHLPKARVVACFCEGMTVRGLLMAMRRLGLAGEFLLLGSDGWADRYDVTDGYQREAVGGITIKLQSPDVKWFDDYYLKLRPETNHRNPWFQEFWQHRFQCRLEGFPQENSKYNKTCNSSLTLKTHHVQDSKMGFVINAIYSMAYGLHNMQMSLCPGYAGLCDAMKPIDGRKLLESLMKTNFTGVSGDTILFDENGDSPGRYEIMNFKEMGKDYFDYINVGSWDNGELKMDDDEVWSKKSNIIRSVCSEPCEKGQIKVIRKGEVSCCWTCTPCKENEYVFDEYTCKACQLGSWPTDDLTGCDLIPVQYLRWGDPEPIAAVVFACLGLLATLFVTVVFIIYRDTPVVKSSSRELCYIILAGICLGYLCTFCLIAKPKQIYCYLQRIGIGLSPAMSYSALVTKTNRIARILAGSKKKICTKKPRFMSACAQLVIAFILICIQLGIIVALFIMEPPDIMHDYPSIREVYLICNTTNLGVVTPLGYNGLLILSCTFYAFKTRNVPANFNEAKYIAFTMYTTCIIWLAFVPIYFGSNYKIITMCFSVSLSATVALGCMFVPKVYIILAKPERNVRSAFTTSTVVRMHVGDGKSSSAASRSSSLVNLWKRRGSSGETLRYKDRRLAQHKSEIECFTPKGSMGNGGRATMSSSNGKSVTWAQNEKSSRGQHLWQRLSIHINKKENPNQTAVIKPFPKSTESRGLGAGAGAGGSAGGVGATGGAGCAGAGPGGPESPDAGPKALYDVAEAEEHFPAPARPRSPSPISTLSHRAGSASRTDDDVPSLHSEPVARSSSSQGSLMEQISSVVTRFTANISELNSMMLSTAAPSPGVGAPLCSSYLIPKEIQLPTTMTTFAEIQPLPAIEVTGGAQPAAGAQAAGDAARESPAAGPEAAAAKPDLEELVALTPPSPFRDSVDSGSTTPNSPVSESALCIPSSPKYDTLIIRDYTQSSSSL

[2] = target: T1, Metabotropic glutamate receptor 5; experiment: Agonist activity at human mGluR5 transiently transfected in BHK cells assessed as potentiation of L-glutamate-induced calcium flux at 10 uM by FLIPR assay
Target sequence in this assay (P41594 whole entry): as above

[3] = target: T1, Metabotropic glutamate receptor 5; experiment: Agonist activity at human mGluR5 transiently transfected in BHK cells assessed as potentiation of L-glutamate-induced calcium flux by FLIPR assay relative to L-glutamate; type: functional, cell-based
Target sequence in this assay (P41594 21-1212 limits assumed): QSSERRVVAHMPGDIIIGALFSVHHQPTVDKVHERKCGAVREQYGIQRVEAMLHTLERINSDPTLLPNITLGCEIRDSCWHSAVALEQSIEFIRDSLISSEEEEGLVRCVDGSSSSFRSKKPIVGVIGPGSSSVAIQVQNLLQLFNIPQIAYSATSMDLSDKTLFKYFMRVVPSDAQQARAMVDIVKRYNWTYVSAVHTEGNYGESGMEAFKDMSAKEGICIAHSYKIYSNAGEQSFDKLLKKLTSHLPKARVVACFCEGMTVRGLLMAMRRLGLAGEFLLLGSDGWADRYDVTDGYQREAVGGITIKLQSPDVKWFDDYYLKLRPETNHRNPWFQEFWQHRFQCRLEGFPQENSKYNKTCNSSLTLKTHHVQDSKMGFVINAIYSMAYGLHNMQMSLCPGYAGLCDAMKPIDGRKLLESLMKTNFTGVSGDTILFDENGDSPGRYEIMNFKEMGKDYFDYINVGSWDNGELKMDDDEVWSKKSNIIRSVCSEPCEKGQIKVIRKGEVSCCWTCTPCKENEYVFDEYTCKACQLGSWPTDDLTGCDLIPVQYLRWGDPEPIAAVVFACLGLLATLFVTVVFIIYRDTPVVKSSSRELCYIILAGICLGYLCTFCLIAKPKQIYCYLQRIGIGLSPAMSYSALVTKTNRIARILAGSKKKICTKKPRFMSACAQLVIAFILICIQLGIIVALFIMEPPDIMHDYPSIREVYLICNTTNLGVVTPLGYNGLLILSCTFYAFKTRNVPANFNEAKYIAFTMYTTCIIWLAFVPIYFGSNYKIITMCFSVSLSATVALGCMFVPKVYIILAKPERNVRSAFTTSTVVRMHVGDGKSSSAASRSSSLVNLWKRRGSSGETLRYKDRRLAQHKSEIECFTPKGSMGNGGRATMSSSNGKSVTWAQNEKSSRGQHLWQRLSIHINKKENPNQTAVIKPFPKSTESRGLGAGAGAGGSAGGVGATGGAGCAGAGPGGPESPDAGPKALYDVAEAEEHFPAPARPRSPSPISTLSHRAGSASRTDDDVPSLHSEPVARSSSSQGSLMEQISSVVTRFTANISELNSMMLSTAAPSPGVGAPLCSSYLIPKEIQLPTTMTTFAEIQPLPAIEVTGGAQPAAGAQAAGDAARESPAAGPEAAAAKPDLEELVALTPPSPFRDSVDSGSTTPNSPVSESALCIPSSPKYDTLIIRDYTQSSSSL

[4] = target: T1, Metabotropic glutamate receptor 5; experiment: Displacement of [3H]quisqualic acid from human recombinant mGluR5 expressed in BHK cells by radioligand binding assay; type: cell-based
Target sequence in this assay (P41594 21-1212 limits assumed): as above

[5] = target: T1, Metabotropic glutamate receptor 5; experiment: Potentiation of [3H]quisqualic acid binding to human recombinant mGluR5 expressed in BHK cells at >1 uM by radioligand binding assay; type: cell-based
Target sequence in this assay (P41594 21-1212 limits assumed): as above

[6] = target: T1, Metabotropic glutamate receptor 5; experiment: Displacement of [3H]MPEP from human recombinant mGluR5 expressed in BHK cells at by radioligand binding assay; type: cell-based
Target sequence in this assay (P41594 whole entry): as the sequence (P41594 whole entry) above

[7] = target: T1, Metabotropic glutamate receptor 5; experiment: Activity at human mGluR5 transiently transfected in BHK cells assessed as decrease in maximum response of L-glutamate for calcium flux at 0.60 uM by FLIPR assay; type: functional, cell-based
Target sequence in this assay (P41594 21-1212 limits assumed): as the sequence (P41594 21-1212 limits assumed) above

[8] = target: Metabotropic glutamate receptor 1 (Homo sapiens) (UniProt Q13255); experiment: Agonist activity at mGluR1 at 10 uM; type: functional
Sequence of Metabotropic glutamate receptor 1 (Homo sapiens) (Q13255 19-1194 limits assumed): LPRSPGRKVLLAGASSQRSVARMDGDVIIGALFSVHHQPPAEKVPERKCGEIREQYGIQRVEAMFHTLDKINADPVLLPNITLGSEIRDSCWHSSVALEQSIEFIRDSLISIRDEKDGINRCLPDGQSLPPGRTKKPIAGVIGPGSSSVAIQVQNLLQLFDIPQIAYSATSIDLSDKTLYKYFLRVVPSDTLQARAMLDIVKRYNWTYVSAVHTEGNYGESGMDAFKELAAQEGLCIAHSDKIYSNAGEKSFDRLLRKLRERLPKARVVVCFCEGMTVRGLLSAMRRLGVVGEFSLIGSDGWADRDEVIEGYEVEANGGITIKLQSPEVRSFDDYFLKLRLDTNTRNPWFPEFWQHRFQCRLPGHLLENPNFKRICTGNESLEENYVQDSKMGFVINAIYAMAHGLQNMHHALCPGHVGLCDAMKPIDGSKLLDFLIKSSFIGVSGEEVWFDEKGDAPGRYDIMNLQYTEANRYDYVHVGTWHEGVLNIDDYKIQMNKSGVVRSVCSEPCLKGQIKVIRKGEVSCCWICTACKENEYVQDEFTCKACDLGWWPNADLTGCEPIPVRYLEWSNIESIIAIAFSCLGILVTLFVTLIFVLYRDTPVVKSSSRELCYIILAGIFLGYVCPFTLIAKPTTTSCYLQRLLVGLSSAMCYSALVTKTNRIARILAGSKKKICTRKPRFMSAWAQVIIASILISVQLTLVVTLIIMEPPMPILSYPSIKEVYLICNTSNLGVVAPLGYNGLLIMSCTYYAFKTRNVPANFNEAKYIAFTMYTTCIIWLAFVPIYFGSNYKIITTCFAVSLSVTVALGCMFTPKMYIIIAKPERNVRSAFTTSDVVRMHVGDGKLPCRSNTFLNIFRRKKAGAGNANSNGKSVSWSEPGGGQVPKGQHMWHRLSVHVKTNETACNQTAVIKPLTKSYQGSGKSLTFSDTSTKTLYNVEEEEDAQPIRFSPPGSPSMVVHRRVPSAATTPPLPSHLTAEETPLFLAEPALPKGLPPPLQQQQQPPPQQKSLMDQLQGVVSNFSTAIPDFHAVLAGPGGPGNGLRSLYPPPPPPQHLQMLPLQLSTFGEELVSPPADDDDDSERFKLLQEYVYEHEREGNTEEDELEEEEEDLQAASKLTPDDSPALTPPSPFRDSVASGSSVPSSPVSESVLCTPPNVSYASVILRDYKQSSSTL

[9] = target: Metabotropic glutamate receptor 1 (Homo sapiens) (UniProt Q13255); experiment: Antagonist activity at mGluR1 at 10 uM; type: functional
[10] = target: Metabotropic glutamate receptor 1 (Homo sapiens) (UniProt Q13255); experiment: Allosteric modulation of mGluR1 at 10 uM
[11] = Aqueous solubility at pH 7.4; type: physicochemical; conditions: aqueous medium
[12] = Ratio of drug level in brain to plasma in C57/6J mouse at 5 mg/kg, po by turboflow chromatography; type: ADME, organism-based; parameters: dose 5 mg/kg, route oral; conditions: brain and plasma
[13] = Ratio of drug level in brain to plasma in Lister Hooded rat at 2.5 mg/kg, po by turboflow chromatography; type: ADME, organism-based; parameters: dose 2.5 mg/kg, route oral; conditions: brain and plasma
[14] = Elimination half life in C57/6J mouse at 5 mg/kg, po; type: ADME, organism-based; parameters: dose 5 mg/kg, route oral; conditions: in vivo, read-out: beta t1/2 (converted)
[15] = Elimination half life in Lister Hooded rat at 2.5 mg/kg, po; type: ADME, organism-based; parameters: dose 2.5 mg/kg, route oral; conditions: in vivo, read-out: beta t1/2 (converted)
[16] = target: T1, Metabotropic glutamate receptor 5; experiment: Agonist activity at human mGluR5 transiently transfected in BHK cells assessed as potentiation of L-glutamate-induced calcium flux at 100 nM by FLIPR assay; type: functional, cell-based
Target sequence in this assay (P41594 21-1212 limits assumed): as the sequence (P41594 21-1212 limits assumed) above

[17] = target: T1, Metabotropic glutamate receptor 5; experiment: Agonist activity at human mGluR5 transiently transfected in BHK cells assessed as potentiation of L-glutamate-induced calcium flux at 1000 nM by FLIPR assay; type: functional, cell-based
Target sequence in this assay (P41594 21-1212 limits assumed): as above

[18] = target: T1, Metabotropic glutamate receptor 5; experiment: Agonist activity at human mGluR5 transiently transfected in BHK cells assessed as 5.5 fold decrease in L-glutamate EC50 for induction of calcium flux at 1 uM by FLIPR assay

## O=C(c1ccc(C#Cc2ccccc2)nc1)N1CCCCC1
[1]
  EC50: 280 nM

## CC1CCN(C(=O)c2ccc(C#Cc3ccccc3)cc2)CC1
[1]
  EC50: 720 nM

## CN1CCN(C(=O)c2ccc(C#Cc3ccccc3)nc2)CC1
[1]
  EC50: 1600 nM

## O=C(NCc1ccsc1)c1ccc(C#Cc2ccccc2)nc1
[1]
  EC50: 140 nM

## CCOC(=O)c1ccc(C#Cc2ccccc2)nc1
[2]
  EC50: Not Active

## O=C(NCc1ccco1)c1ccc(C#Cc2ccccc2)nc1
[1]
  EC50: 180 nM

## O=C(c1ccc(C#Cc2ccccc2)nc1)N1CCOCC1
[1]
  EC50: 990 nM

## CC1CCN(C(=O)c2ccc(C#Cc3ccccc3)nc2)CC1
[1]
  EC50: 130 nM

## C(#Cc1ccc(C(N2CCOCC2)N2CCOCC2)cc1)c1ccccc1
[1]
  EC50: 970 nM
[3]
  Activity: 73%

## CC1CCC(NC(=O)c2ccc(C#Cc3ccccc3)nc2)CC1 (stereo not drawn)
[1]
  EC50: 1200 nM

## CN1CCN(C(=O)c2ccc(C#Cc3ccccc3)cc2)CC1
[1]
  EC50: 3100 nM

## CC(C)CCNC(=O)c1ccc(C#Cc2ccccc2)nc1
[1]
  EC50: 510 nM

## O=C(c1ccc(C#Cc2ccccc2)nc1)N1CCSCC1
[1]
  EC50: 46 nM

## NC(=O)c1ccc(C#Cc2ccccc2)nc1
[1]
  EC50: 6600 nM

## O=C(NC1CCCCC1)c1ccc(C#Cc2ccccc2)nc1
[1]
  EC50: 240 nM

## O=C(NCc1ccsc1)c1ccc(C#Cc2ccccc2)cc1
[1]
  EC50: 1200 nM

## O=C(NC1CCCC1)c1ccc(C#Cc2ccccc2)nc1
[1]
  EC50: 30 nM
[4]
  Activity: inactive
[5]
  Activity: 30%
[6]
  Ki: 1800 nM
[7]
  Activity: Active
[8]
  Activity: inactive
[9]
  Activity: inactive
[10]
  Activity: inactive
[11]
  solubility: 1.7 µM (≈ 0.494 µg/mL)
[12]
  Kp: 0.5
[13]
  Kp: 0.3
[14]
  half-life: 1 h
[15]
  half-life: 4 h
[16]
  Activity: Active
[17]
  Activity: Active
[18]
  Activity: Active
